The results in this text go back to patent US6004938A, “Inositolglycans having insulin-like action” (Hoescht Aktiengesellschaft, priority 1996, dated 1999).

pEC50: −log10 of the molar value.

The subject of test [1] is rat fat cells. As to the kind of experiment: Glucose transport in isolated rat fat cells (insulin-like activity). Format: cell-based, rat (Wistar). The note with it: rat fat cells, 2-[3H]-deoxyglucose; for pEC50: concentration at 50% of the maximum stimulation achieved by the respective compound, read-out: Glucose transport EC50; for Glucose transport % Insmax: part of maximum stimulation factor of insulin (set at 100%), 15 min, 37° C. The procedure:
(§1) This example provides exemplary methods for determining insulin-like activity. The biological activity of the compounds of the formula I according to the invention is determined with the aid of isolated fat cells from the rat.
(§2) The preparation of fat cells from the rat was carried out as follows: White fatty tissue of the epididymis (Wistar rat, 160-180 g, no food restriction) is digested with collagenase and the resulting isolated fat cells are separated off by means of filtration of undigested tissue and washed by flotation several times using Krebs-Ringer-Henseleit buffer (KRH buffer).
[…] After addition of 15 μl of 2-[^3 H]-deoxyglucose (0.3 mM, 0.2 μCi), the incubation is continued at room temperature. After specified times (0-20 min), 100 μl of the test batch are removed and transferred to a reaction vessel (contents 400 μl), in which 250 μl of dinonyl phthalate have been initially introduced. After centrifugation (15,000×g, 1 min), the cells are separated off from the oily layer of the incubation medium underneath the oily layer by cutting the tube at the level of the oily layer and transferring to a scintillation vessel. After addition of 5 ml of water-soluble scintillation fluid, the radioactivity is determined. This total cell-associated radioactivity is corrected for [^3 H]-deoxyglucose which has passively diffused into the cells and is included in the cell interstices by subtraction of a control value (incubation in the presence of the glucose transport inhibitor cytochalasin B). The initial (stimulated) glucose transport rate is linear up to 15 min. The maximum stimulation factor--this is the ratio of the incubation result with insulin to the incubation result without insulin--is set at 100%.
The terms "%Insmax " and "EC50 " are as defined under A) lipogenesis.

Test [2] has as its system rat fat cells. As to the kind of experiment: Lipogenesis in isolated rat fat cells (insulin-like activity). Format: cell-based, rat (Wistar). The note with it: rat fat cells, 90 min, 37° C.; for pEC50: concentration at 50% of the maximum stimulation achieved by the respective compound, read-out: Lipogenesis EC50; for Lipogenesis % Insmax: part of maximum stimulation factor of insulin (set at 100%), D-[3-3H]glucose. The procedure: as §1, §2
This test determines the insulin-stimulable conversion of glucose into toluene-soluble products (triglycerides, phospholipids, fatty acids), which promotes glucose transport and triglyceride (glycerol-3-P synthesis, esterification)/phospholipid/fatty acid synthesis including the insulin signal transmission cascade. At a glucose concentration of 2.5 mM in the test, the esterification (and not the glycerol-3-P synthesis including glucose transport) is rate-determining for the stimulation of lipogenesis.
200 μl (3×10^5 cells/ml) of rat fat cells in KRH buffer are incubated at 37° C. for 90 min with 100 μl of D-[3-^3 H] glucose (25 mM, 0.4 μCi) in the presence or absence of insulin (10 ng/ml) or compound of the formula I according to the invention (final volume 1 ml). By addition of a toluene-soluble scintillation cocktail (10 ml), the cells are disrupted and the lipids are separated off from water-soluble products and the incubation medium. After phase separation, the radioactivity incorporated in lipid products is determined directly without removal of the aqueous phase by scintillation measurement ([^3 H]lipid [dpm×10^-3 ]). A control value (incubation under identical conditions but without cells) is subtracted from this radioactivity. The lipogenesis rate is linear up to 120 min. The maximum stimulation factor--this is the ratio of the incubation result with insulin to the incubation results without insulin--is set at 100%. The percentage data under "%Insmax " are parts of the maximum stimulation factor defined in this way. The term EC50 indicates the concentration of the compound of the formula I at which 50% of the maximum stimulation to be achieved by the respective compound of the formula I is to be observed.

A word on the pEC50: it is −log10 of the EC50, conventionally taken in molar units. As for “HO-PO(H)O-6Manα1(Manα1-2)-2-Manα1-6-Manα1-4GluN(HSO3)β-1-6(L)-inositol-1,2-(cyclic)-phosphate [J]”, in test [1], the pEC50 was 5.52 and the “Glucose transport % Insmax” value was 21%. In test [2], the pEC50 was 5.10 and the “Lipogenesis % Insmax” value was 63%.
On the same counts, the results for “HO-PO(H)O-6Manα1(Manα1-2)-2Manα1-6Manα1-4GluNα1-6(L)inositol-2-phosphate [F]” are 4.60, 26%, 4.82 and 53%.
In the case of “HO-PO(H)O-6Manα1-6-Manα1-6Manα1-6Manα1-3GluNβ1-6(L)inositol-3-phosphate”, in test [1], the negative-log EC50 (pEC50) was 4.30 and the “Glucose transport % Insmax” value worked out at 14%. For the same substance, in test [2], the negative logarithm of the EC50 (pEC50) was 4.70 and the “Lipogenesis % Insmax” value is reported as 18%.
For “HO-SO2 -6Manα1(Manα1-2)-2Manα1-6Manα1-4GluNβ1-6(D)-inositol-1,2-(cyclic)-phosphate”, in that order: 5.10, 36%, 5.15 and 84%.
